Measured values: ChEMBL document CHEMBL1759842, “Discovery of non-glucoside SGLT2 inhibitors” (Bioorg Med Chem Lett, 2011)

What was measured:
Assay type in all cases: cell-based
[1] = molecular target: T1, Sodium/glucose cotransporter 1 (Rattus norvegicus, UniProt P53790); assay: Inhibition of rat SGLT1 expressed in CHO cells assessed as inhibition of [14C]-alpha-methyl-D-glucopyranoside transport after 60 mins by scintillation counting
T1 sequence (P53790 whole entry): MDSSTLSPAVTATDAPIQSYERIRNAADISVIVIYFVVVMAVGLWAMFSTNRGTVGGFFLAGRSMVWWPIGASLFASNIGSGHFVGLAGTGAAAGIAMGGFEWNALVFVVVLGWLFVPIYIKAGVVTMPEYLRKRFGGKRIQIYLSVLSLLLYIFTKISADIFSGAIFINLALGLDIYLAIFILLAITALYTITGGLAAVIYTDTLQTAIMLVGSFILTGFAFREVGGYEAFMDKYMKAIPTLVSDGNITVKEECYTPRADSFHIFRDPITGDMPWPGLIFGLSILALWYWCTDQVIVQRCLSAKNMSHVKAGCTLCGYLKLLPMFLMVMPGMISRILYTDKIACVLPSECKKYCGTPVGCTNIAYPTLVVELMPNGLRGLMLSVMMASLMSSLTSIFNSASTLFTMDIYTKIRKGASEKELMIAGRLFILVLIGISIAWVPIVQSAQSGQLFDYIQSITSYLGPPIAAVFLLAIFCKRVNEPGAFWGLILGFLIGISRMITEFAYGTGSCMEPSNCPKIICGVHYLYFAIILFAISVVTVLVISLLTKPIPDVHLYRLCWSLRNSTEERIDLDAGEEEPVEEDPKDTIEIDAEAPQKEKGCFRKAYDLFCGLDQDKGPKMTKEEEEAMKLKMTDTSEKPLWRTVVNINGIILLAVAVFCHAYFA

[2] = molecular target: T2, Sodium/glucose cotransporter 2 (Homo sapiens, UniProt P31639); assay: Inhibition of human SGLT2 expressed in CHO cells assessed as inhibition of [14C]-alpha-methyl-D-glucopyranoside transport after 60 mins by scintillation counting
T2 sequence (P31639 whole entry): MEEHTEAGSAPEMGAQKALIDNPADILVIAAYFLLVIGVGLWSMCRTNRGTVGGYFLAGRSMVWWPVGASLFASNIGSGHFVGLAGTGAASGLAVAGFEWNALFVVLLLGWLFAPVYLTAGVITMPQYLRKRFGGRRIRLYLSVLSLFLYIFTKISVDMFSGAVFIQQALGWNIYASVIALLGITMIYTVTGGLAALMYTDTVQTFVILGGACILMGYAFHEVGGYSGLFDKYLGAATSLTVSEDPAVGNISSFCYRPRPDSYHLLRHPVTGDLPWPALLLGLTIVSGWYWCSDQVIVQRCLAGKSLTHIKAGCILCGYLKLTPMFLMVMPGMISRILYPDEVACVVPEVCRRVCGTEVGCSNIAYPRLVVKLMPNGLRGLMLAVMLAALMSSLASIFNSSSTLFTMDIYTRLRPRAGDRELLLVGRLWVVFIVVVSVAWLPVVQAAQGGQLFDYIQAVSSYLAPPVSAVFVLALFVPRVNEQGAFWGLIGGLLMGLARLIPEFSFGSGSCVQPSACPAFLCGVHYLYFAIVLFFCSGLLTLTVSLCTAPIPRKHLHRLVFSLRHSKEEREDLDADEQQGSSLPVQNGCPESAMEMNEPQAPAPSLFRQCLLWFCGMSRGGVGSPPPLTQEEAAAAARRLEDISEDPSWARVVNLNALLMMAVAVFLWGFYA

[3] = molecular target: T3, Sodium/glucose cotransporter 2 (Mus musculus, UniProt Q923I7); assay: Inhibition of mouse SGLT2 expressed in CHO cells assessed as inhibition of [14C]-alpha-methyl-D-glucopyranoside transport after 60 mins by scintillation counting
T3 sequence (Q923I7 whole entry): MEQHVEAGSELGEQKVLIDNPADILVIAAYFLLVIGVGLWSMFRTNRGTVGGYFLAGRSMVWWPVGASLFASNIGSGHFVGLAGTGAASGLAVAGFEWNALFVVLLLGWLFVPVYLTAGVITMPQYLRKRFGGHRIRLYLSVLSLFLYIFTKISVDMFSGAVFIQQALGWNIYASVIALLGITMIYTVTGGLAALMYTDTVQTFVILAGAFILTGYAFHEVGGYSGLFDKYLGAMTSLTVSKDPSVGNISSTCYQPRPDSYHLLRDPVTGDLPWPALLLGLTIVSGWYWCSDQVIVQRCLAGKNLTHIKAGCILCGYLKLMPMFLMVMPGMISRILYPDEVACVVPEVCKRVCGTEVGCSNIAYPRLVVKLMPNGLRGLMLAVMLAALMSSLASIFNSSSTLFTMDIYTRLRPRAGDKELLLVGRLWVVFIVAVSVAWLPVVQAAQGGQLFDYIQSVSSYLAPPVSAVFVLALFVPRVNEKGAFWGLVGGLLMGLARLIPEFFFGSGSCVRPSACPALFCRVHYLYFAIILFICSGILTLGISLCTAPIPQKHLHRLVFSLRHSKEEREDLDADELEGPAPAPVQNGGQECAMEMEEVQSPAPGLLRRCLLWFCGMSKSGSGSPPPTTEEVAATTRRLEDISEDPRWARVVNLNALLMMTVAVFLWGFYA

[4] = molecular target: T4, Sodium/glucose cotransporter 1 (Homo sapiens, UniProt P13866); assay: Inhibition of human SGLT1 expressed in CHO cells assessed as inhibition of [14C]-alpha-methyl-D-glucopyranoside transport after 60 mins by scintillation counting
T4 sequence (P13866 whole entry): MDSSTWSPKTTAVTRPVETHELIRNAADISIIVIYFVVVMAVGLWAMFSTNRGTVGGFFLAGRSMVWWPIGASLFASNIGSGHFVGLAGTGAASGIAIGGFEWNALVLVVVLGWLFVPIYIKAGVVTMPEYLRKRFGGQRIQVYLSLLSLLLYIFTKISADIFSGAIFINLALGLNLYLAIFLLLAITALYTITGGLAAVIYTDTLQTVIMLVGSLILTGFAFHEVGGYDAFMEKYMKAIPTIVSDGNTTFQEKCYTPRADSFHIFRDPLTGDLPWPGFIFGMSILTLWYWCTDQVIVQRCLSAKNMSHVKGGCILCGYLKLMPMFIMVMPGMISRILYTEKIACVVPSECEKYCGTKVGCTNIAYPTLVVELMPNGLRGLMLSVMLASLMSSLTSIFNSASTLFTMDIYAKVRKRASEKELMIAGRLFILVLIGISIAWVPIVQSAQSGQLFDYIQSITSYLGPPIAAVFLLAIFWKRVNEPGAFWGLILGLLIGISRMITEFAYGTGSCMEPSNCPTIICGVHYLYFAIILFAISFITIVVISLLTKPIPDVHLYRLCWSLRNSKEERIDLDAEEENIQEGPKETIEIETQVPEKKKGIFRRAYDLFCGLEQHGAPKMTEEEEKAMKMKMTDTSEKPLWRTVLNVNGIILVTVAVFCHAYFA

Cn1c(CN2C(=O)CSc3ccc(C(F)(F)F)cc32)nnc1SCc1ccc(Cl)cc1
IC50 [1]: 9 µM | IC50 [2]: 1400 nM | IC50 [3]: 1200 nM | IC50 [4]: 7 µM
